The values below come from patent US20230416237A1, “AMIDE COMPOUND, PHARMACEUTICAL COMPOSITION AND USE THEREOF” (SHENZHEN BO LI JIAN MEDICINE CO., LTD., priority 2020, published 2023).

In test [1] the test system is IFNα-induced pSTAT3 (JAK1/TYK2 signaling pathway). Kind of test: Mouse whole blood assay, inhibition of IFNα-induced pSTAT3. It counts as cell-based. As to conditions: C57BL/6J mouse blood, IFNα 20000 IU/mL. The method, then:
Cytokine IFNα can induce STAT3 phosphorylation (pSTAT3) through the JAK1/TYK2 signaling pathway. […] IFNα used was Recombinant mouse IFNα (Miltenyi #130-093-131), the pSTAT3 antibody used was Alexa Fluor 488 anti-STAT3 Phospho (Tyr705) Antibody (Biolegend #651106), and the CD3 antibody used was Brilliant Violet 421 anti-mouse CD3 Antibody (Biolegend #100228). The cytokine dilution buffer was PBS+0.1% BSA, which was filtered and stored at […]. The FACS buffer was PBS+0.2% BSA+1 mM EDTA. Specific steps are described below. • 1. C57BL/6J mouse blood was added to a 96-well plate, with 90 μL per well. • 2. Each well was added with 5 μL of the compound ([…]), uniformly mixed and incubated at 37° C. for 60 min in an incubator. • 3. Each well was added with 5 μL of 20×IFNα (with a working concentration of 20000 IU/mL) as the stimulation factor, uniformly mixed and incubated at 37° C. for 30 min. • 4. Blood was transferred to a 96-deep-well plate, and each well was added with 1 mL of Lyse fix buffer (1×), uniformly mixed and incubated at 37° C. for 10 min. • 5. The plate was centrifuged at 600 g for 5 min and the supernatant was discarded. 1 mL of PBS was added to each well and centrifuged at 600 g for 5 min and the supernatant was discarded, which were repeated twice. Each well was added with 100 μL of the anti-mCD3 antibody (diluted by a fold of 80 with the cytokine dilution buffer), uniformly mixed and incubated at 4° C. for 30 min. • 6. 1 mL of PBS was added to each well and centrifuged at 600 g for 5 min and the supernatant was discarded, which were repeated twice. Each well was added with 1000 μL of Perm III, uniformly mixed and incubated at 4° C. for 30 min. • 7. The plate was centrifuged at 600 g for 5 min and the supernatant was discarded. 1 mL of PBS was added to each well and centrifuged at 600 g for 5 min and the supernatant was discarded, which were repeated twice. • 8. Each well was added with 100 μL of the anti-pSTAT3 antibody (diluted by a fold of 50 with the FACS buffer), uniformly mixed and incubated at 25° C. for 40 min. • 9. 1 mL of the FACS buffer was added to each well and centrifuged at 600 g for 5 min and the supernatant was discarded. 200 μL of the FACS buffer was added to each well and resuspended. All samples were transferred to a 96-well tip-bottom plate and uploaded. • 10. Data were collected and analyzed.

In test [2] the target is JAK1 (Homo sapiens (Human), UniProt P23458). Kind of test: JAK1 inhibitory activity, mobility shift assay, 1 mM ATP. It counts as biochemical. As to conditions: 1 mM ATP; Table 7. As to the method: (§1) The JAK1 inhibitory activity and the JAK2 inhibitory activity of the amide compounds provided in the above examples were tested by the method below.
(§2) Specific steps are described below. • 1. A 1× Kinase buffer was formulated. • 2. Concentration gradients of the compound were formulated: a test compound with an initial concentration of 10000 nM (JAK1) or 30000 nM (JAK2) was diluted in a 384-well plate to a 100% DMSO solution with a 100-fold final concentration, wherein the compound was diluted by a fold of 3 to 10 concentrations. 250 nL of the compound with the 100-fold final concentration was transferred with a dispenser Echo 550 to the target plate. • 3. A kinase solution with a 2.5-fold final concentration was prepared with the 1× Kinase buffer. • 4. […] The plate was centrifuged at 1000 rpm for 30 s, shaken and uniformly mixed, and incubated for 10 min at room temperature. • 6. A mixed solution of ATP (the final concentration of ATP=1 mM) and Kinase substrate with a 5/3-fold final concentration was formulated with the 1× Kinase buffer. • 7. 15 μL of the mixed solution of ATP and the substrate with the 5/3-fold final concentration was added to initiate the reaction. • 8. The 384-well plate was centrifuged at 1000 rpm for 30 s, shaken and uniformly mixed, and incubated for respective times at room temperature. • 9. The kinase reaction was stopped by adding 30 μL of a detection termination solution, and the plate was centrifuged at 1000 rpm for 30 s and shaken and uniformly mixed. • 10. The conversion rate was read with Caliper EZ Reader and the half maximal inhibitory concentration (IC50) was calculated.

The target in test [3] is JAK2 (Homo sapiens (Human), UniProt O60674). Kind of test: JAK2 inhibitory activity, mobility shift assay, 1 mM ATP. It counts as biochemical. As to conditions: Table 7. As to the method:
as §1, §2

JAK2, sequence (O60674 826-1132): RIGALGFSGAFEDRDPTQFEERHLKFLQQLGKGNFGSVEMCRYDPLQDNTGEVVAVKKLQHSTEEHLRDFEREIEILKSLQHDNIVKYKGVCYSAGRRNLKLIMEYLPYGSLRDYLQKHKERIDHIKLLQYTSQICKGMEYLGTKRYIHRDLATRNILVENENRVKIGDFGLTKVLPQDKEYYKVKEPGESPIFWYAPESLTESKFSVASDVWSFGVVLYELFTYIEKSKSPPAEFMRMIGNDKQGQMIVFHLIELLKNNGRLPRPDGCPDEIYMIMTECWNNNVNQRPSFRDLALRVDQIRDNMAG
JAK1, sequence (P23458 850-1154): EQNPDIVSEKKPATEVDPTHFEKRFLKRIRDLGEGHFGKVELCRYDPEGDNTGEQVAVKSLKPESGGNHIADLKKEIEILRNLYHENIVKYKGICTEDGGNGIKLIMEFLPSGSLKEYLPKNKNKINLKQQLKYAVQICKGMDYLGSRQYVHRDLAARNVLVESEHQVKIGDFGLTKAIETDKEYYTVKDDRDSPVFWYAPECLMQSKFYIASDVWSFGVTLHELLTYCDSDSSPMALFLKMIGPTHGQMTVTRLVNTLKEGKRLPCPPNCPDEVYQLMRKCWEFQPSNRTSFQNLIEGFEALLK

`CCCS(=O)(=O)N[C@H]1C[C@@H](N(C)c2ncnc3[nH]ccc23)C1` [abrocitinib, reference compound]: the 50% inhibitory concentration (IC50) (usually the concentration that inhibits the measured activity by half) in test [1] worked out at 204 nM.

In the case of `COc1nn(C)cc1Nc1ncc(C)c(-c2c[nH]c3c(NC(=O)[C@H]4CC(F)(F)CN4[C@@H]4CCOC4)cccc23)n1` [Example 34, (R)-4,4-difluoro-N-(3-(2-((3-methoxy-1-methyl-1H-pyrazol-4-yl)amino)-5-methylpyrimidin-4-yl)-1H-indol-7-yl)-1-((R)-tetrahydrofuran-3-yl)pyrrolidine-2-carboxamide], the IC50 in test [2] stood at 161 nM; in test [3] it was 2510 nM.

Consider `COc1nn(C)cc1Nc1ncc(C)c(-c2c[nH]c3c(NC(=O)[C@H]4CCCN4[C@@H]4CCN(C)C4)cccc23)n1` [Example 28, (2R,3′R)-N-(3-(2-((3-methoxy-1-methyl-1H-pyrazol-4-yl)amino)-5-methylpyrimidin-4-yl)-1H-indol-7-yl)-1′-methyl-[1,3′-bipyrrolidine]-2-carboxamide], for which the concentration for half-maximal inhibition (IC50) in test [2] stood at 40 nM; in test [3], 16300 nM.

For `COc1nn(C)cc1Nc1ncc(Cl)c(-c2c[nH]c3c(NC(=O)[C@@H]4CCCN4S(C)(=O)=O)cccc23)n1` [Example 4, (S)-N-(3-(5-chloro-2-((3-methoxy-1-methyl-1H-pyrazol-4-yl)amino)pyrimidin-4-yl)-1H-indol-7-yl)-1-(methanesulfonyl)pyrrolidine-2-carboxamide], the figures for the IC50 in test [2] and in test [3] were 53 nM and 652 nM, respectively.

For the compound `COc1nn(C)cc1Nc1ncc(F)c(-c2c[nH]c3c(NC(=O)[C@H]4CC(F)(F)CN4[C@@H]4CCN(C)C4)cccc23)n1` [Example 26, (2R,3′R)-4,4-difluoro-N-(3-(5-fluoro-2-((3-methoxy-1-methyl-1H-pyrazol-4-yl)amino)pyrimidin-4-yl)-1H-indol-7-yl)-1′-methyl-[1,3′-bipyrrolidine]-2-carboxamide], the IC50 in test [2] stood at 48 nM; in test [3], 5490 nM.

As for `COc1nn(C)cc1Nc1ncc(F)c(-c2c[nH]c3c(NC(=O)[C@H]4C[C@@H](OC)CN4C4CCNCC4)cccc23)n1` [Example 8, (2R,4R)-N-(3-(5-fluoro-2-((3-methoxy-1-methyl-1H-pyrazol-4-yl)amino)pyrimidin-4-yl)-1H-indol-7-yl)-4-methoxy-1-(piperidin-4-yl)pyrrolidine-2-carboxamide], the results for the IC50 in test [2] and in test [3] were 1170 nM and 10500 nM, respectively.

Turning to `COc1nn(C)cc1Nc1ncc(F)c(-c2c[nH]c3c(NC(=O)[C@H]4CCCN4[C@H]4CCN(C)C4)cccc23)n1` [Example 25, (2R,3′S)-N-(3-(5-fluoro-2-((3-methoxy-1-methyl-1H-pyrazol-4-yl)amino)pyrimidin-4-yl)-1H-indol-7-yl)-1′-methyl-[1,3′-bipyrrolidine]-2-carboxamide], the 50% inhibitory concentration (IC50) was found to be 68 nM in test [2] and 12400 nM in test [3].

Regarding `COc1nn(C)cc1Nc1nccc(-c2c[nH]c3c(NC(=O)[C@H]4C[C@H](F)CN4[C@H]4CCNC4)cccc23)n1` (single isomer, unassigned) [Example 19], the IC50 in test [2] came to 368 nM; in test [3], 15500 nM.

As for `COc1nn(C)cc1Nc1ncc(C)c(-c2c[nH]c3c(NC(=O)[C@H]4C[C@H](OC)CN4C4CCN(C)CC4)cccc23)n1` [Example 13, (2R,4S)-4-methoxy-N-(3-(2-((3-methoxy-1-methyl-1H-pyrazol-4-yl)amino)-5-methylpyrimidin-4-yl)-1H-indol-7-yl)-1-(1-methylpiperidin-4-yl)pyrrolidine-2-carboxamide], the IC50 in test [2] is 101 nM; in test [3], 14500 nM.

For the compound `COc1nn(C)cc1Nc1nccc(-c2c[nH]c3c(NC(=O)[C@H]4C[C@H](F)CN4C4CCN(C)CC4)cccc23)n1` [Example 40, (2R,4S)-4-fluoro-N-(3-(2-((3-methoxy-1-methyl-1H-pyrazol-4-yl)amino)pyrimidin-4-yl)-1H-indol-7-yl)-1-(1-methylpiperidin-4-yl)pyrrolidine-2-carboxamide], the concentration for half-maximal inhibition (IC50) is 259 nM in test [2] and 24300 nM in test [3].

On to `CCS(=O)(=O)N1CCC[C@H]1C(=O)Nc1cccc2c(-c3nc(Nc4cn(C)nc4OC)ncc3F)c[nH]c12` [Example 2, (S)-N-(3-(5-fluoro-2-((3-methoxy-1-methyl-1H-pyrazol-4-yl)amino)pyrimidin-4-yl)-1H-indol-7-yl)-1-(ethanesulfonyl)pyrrolidine-2-carboxamide], for which the IC50 worked out at 137 nM in test [2] and 1850 nM in test [3].

As to `COc1nn(C)cc1Nc1ncc(F)c(-c2c[nH]c3c(NC(=O)[C@H]4C[C@H](F)CN4[C@@H]4CCN(C)C4)cccc23)n1` [Example 38, (2R,3′R,4S)-4-fluoro-N-(3-(5-fluoro-2-((3-methoxy-1-methyl-1H-pyrazol-4-yl)amino)pyrimidin-4-yl)-1H-indol-7-yl)-1′-methyl-[1,3′-bipyrrolidine]-2-carboxamide], the half-maximal inhibitory concentration (IC50) turned out to be 34 nM in test [2] and 5280 nM in test [3].

Turning to `COc1nn(C)cc1Nc1ncc(C)c(-c2c[nH]c3c(NC(=O)[C@H]4C[C@H](F)CN4[C@H]4CCN(C)C4)cccc23)n1` [Example 31, (2R,3′S,4S)-4-fluoro-N-(3-(2-((3-methoxy-1-methyl-1H-pyrazol-4-yl)amino)-5-methylpyrimidin-4-yl)-1H-indol-7-yl)-1′-methyl-[1,3′-bipyrrolidine]-2-carboxamide], the IC50 in test [2] is 92 nM; in test [3], 11900 nM.

With `COc1nn(C)cc1Nc1nccc(-c2c[nH]c3c(NC(=O)[C@H]4C[C@H](F)CN4[C@@H]4CCNC4)cccc23)n1` (single isomer, unassigned) [Example 18], the values for the IC50 in test [2] and in test [3] were 108 nM and 10200 nM, respectively.

On to `COc1nn(C)cc1Nc1ncc(F)c(-c2c[nH]c3c(NC(=O)[C@@H]4CCCN4S(C)(=O)=O)cccc23)n1` [Example 1, (S)—N-(3-(5-fluoro-2-((3-methoxy-1-methyl-1H-pyrazol-4-yl)amino)pyrimidin-4-yl)-1H-indol-7-yl)-1-(methanesulfonyl)pyrrolidine-2-carboxamide], for which the IC50 in test [2] came out at 73 nM; in test [3], 2820 nM.

Take `COc1nn(C)cc1Nc1ncc(F)c(-c2c[nH]c3c(NC(=O)[C@H]4C[C@@H](F)CN4C4CCNCC4)cccc23)n1` [Example 7, (2R,4R)-4-fluoro-N-(3-(5-fluoro-2-((3-methoxy-1-methyl-1H-pyrazol-4-yl)amino)pyrimidin-4-yl)-1H-indol-7-yl)-1-(piperidin-4-yl)pyrrolidine-2-carboxamide]: the results for the IC50 in test [2] and in test [3] were 152 nM and 4410 nM, respectively.

Take `COc1nn(C)cc1Nc1ncc(C)c(-c2c[nH]c3c(NC(=O)[C@H]4CC(F)(F)CN4[C@H]4CCOC4)cccc23)n1` [Example 35, (R)-4,4-difluoro-N-(3-(2-((3-methoxy-1-methyl-1H-pyrazol-4-yl)amino)-5-methylpyrimidin-4-yl)-1H-indol-7-yl)-1-((S)-tetrahydrofuran-3-yl)pyrrolidine-2-carboxamide]: the concentration for half-maximal inhibition (IC50) in test [2] worked out at 115 nM; in test [3], 1890 nM.

For the compound `COc1nn(C)cc1Nc1ncc(F)c(-c2c[nH]c3c(NC(=O)[C@H]4CCCN4C4CCNCC4)cccc23)n1` [Example 5, (R)—N-(3-(5-fluoro-2-((3-methoxy-1-methyl-1H-pyrazol-4-yl)amino)pyrimidin-4-yl)-1H-indol-7-yl)-1-(piperidin-4-yl)pyrrolidine-2-carboxamide], the 50% inhibitory concentration (IC50) is 55 nM in test [2] and 4300 nM in test [3].
